12 molecules from article PMC9532951, “Identification and characterization of a novel SNAT2 (SLC38A2) inhibitor reveals synergy with glucose transport inhibition in cancer cells” (Frontiers in Pharmacology, 2022) can be followed below.

Test [1] relates to SNAT1/2. The experiment in a line: FMP assay: depolarisation by amino acid substrates in amino acid depleted HCC1806 cells. As to conditions: for FMP response as substrate: 1 mM; for FMP fluorescence reading: amino acid 1 mM final. The class given is cell-based, human. As to the method: The FLIPR Membrane Potential Blue Explorer Kit (Molecular Devices) was used to characterise inhibitors and to optimise a high-throughput compound screen. Cells were seeded at approximately 60,000 cells/well on a 96-well plate and allowed to attach and grow overnight in a cell incubator. […] Cells were then washed once with mHBSS and incubated with 50 µl of the mHBSS-resuspended FMP assay dye and 50 µl of mHBSS (with or without inhibitors) and incubated at room temperature for 30 min. The plate was then placed in an EnSpire Multimode plate reader (PerkinElmer) and four sequential measurements of fluorescence were recorded as a baseline reference. Immediately after the baseline measurements were taken, 25 µl of 5 mM glutamine dissolved in mHBSS was injected into each well and the plate was shaken orbitally for 5 s before a series of consecutive fluorescence measurements were taken. The excitation wavelength was set to 530 nm and the emission was detected at 565 nm. […] After the assay was complete, the liquid content of the plate was carefully removed, and the cell monolayer inspected to ensure it remained intact throughout the course of the assay.

The subject of test [2] is SNAT1 and SNAT2. The experiment in a line: FMP assay: inhibition of glutamine-induced membrane depolarisation in amino acid depleted HCC1806 cells. The class given is cell-based, human. As to conditions: FMP assay, top hit compounds from the HTS, 9-point dose-response, n = 6. How it is done:
The FLIPR Membrane Potential Blue Explorer Kit (Molecular Devices) was used to characterise inhibitors and to optimise a high-throughput compound screen. Cells were seeded at approximately 60,000 cells/well on a 96-well plate and allowed to attach and grow overnight in a cell incubator. […] Cells were then washed once with mHBSS and incubated with 50 µl of the mHBSS-resuspended FMP assay dye and 50 µl of mHBSS (with or without inhibitors) and incubated at room temperature for 30 min. The plate was then placed in an EnSpire Multimode plate reader (PerkinElmer) and four sequential measurements of fluorescence were recorded as a baseline reference. Immediately after the baseline measurements were taken, 25 µl of 5 mM glutamine dissolved in mHBSS was injected into each well and the plate was shaken orbitally for 5 s before a series of consecutive fluorescence measurements were taken. The excitation wavelength was set to 530 nm and the emission was detected at 565 nm. The Δ fluorescent signal reported in the figures was taken 30 s after substrate addition. After the assay was complete, the liquid content of the plate was carefully removed, and the cell monolayer inspected to ensure it remained intact throughout the course of the assay.
IC50 were calculated using equation y=ymax(1−x/x+IC50)

Values joined by “and” are separate entries in the source; they are usually repeats but may differ in a detail not shown here. Equal values may be shown once.

For the molecule `C[C@H](N)C(=O)O` [Alanine], in test [1], the “FMP response as substrate” value is “strongest response”. The FMP fluorescence reading in test [1] (t=0 s) was 54596 and 53457 and 39829; in test [1] (t=15 s), 99809 and 107431 and 86655; in test [1] (t=30 s), 104988 and 111613 and 89183; in test [1] (t=45 s), 107389 and 114043 and 90927; in test [1] (t=60 s) it was 109154 and 114952 and 91569; in test [1] (t=75 s), 110049 and 115127 and 91618. In addition, the FMP fluorescence reading in test [1] (t=90 s) was 110411 and 114906 and 91021; in test [1] (t=105 s), 110237 and 114204 and 90013; in test [1] (t=120 s) it was 109638 and 112786 and 88869; in test [1] (t=135 s) it was 108521 and 111868 and 87878; in test [1] (t=-15 s) it was 54286 and 53641 and 39860; in test [1] (t=-30 s, replicates 1-3) it was 53991 and 53679 and 39761.

In general, IC50 refers to the point on the concentration scale where inhibition reaches its midpoint. A lower IC50 goes with higher potency. The molecule `C#Cc1cccc(NC(=O)N2CC(S(=O)(=O)N3CCN(C(=O)OC(C)(C)C)CC3)C2)c1` [Compound 55_G] had an IC50 in test [2] of 83.5 µM.

`NC(=O)CCC(N)C(=O)O` (stereo in doubt) [D-glutamine]: the FMP fluorescence reading in test [1] (t=0 s) was 42839 and 39003 and 33523; in test [1] (t=15 s), 50034 and 45149 and 38644; in test [1] (t=30 s) it was 50270 and 45056 and 39117; in test [1] (t=45 s) it was 50350 and 45753 and 39233; in test [1] (t=60 s), 50602 and 45748 and 39437; in test [1] (t=75 s), 50996 and 45609 and 39481. Further, the FMP fluorescence reading was 51179 and 45923 and 39430 in test [1] (t=90 s); 51145 and 45682 and 40002 in test [1] (t=105 s); 51340 and 46043 and 40162 in test [1] (t=120 s); 51584 and 46357 and 40097 in test [1] (t=135 s); 43005 and 38805 and 33297 in test [1] (t=-15 s); 42947 and 39128 and 33746 in test [1] (t=-30 s, replicates 1-3).

In the case of `N=C(N)NCCC[C@H](N)C(=O)O` [Arginine], the FMP fluorescence reading in test [1] (t=0 s) was 57601 and 55451 and 44145; in test [1] (t=15 s) it was 59785 and 58453 and 46579; in test [1] (t=30 s), 60283 and 58803 and 46849; in test [1] (t=45 s), 60859 and 58896 and 47284; in test [1] (t=60 s) it was 61207 and 59368 and 47582; in test [1] (t=75 s) it was 60824 and 59447 and 47575. The FMP fluorescence reading in test [1] (t=90 s) is 61207 and 59194 and 47872; in test [1] (t=105 s), 61703 and 59566 and 47735; in test [1] (t=120 s), 61529 and 59552 and 47812; in test [1] (t=135 s), 61459 and 60027 and 47987; in test [1] (t=-15 s), 57812 and 55789 and 44423; in test [1] (t=-30 s, replicates 1-3) it was 57675 and 55602 and 44293.

On to `N[C@@H](Cc1ccccc1)C(=O)O` [Phenylalanine], for which the “FMP response as substrate” value in test [1] is “weak signal”. The FMP fluorescence reading in test [1] (t=0 s) was 56591 and 55422 and 43224; in test [1] (t=15 s), 73580 and 72052 and 58378; in test [1] (t=30 s), 74725 and 73471 and 59296; in test [1] (t=45 s), 75492 and 73818 and 59645; in test [1] (t=60 s), 76233 and 74445 and 59921; in test [1] (t=75 s), 76773 and 74969 and 60608. The FMP fluorescence reading is 77388 and 75496 and 60901 in test [1] (t=90 s); 77493 and 75802 and 61169 in test [1] (t=105 s); 77831 and 75902 and 61002 in test [1] (t=120 s); 78078 and 75738 and 60891 in test [1] (t=135 s); 56780 and 55712 and 43156 in test [1] (t=-15 s); 56746 and 55392 and 43055 in test [1] (t=-30 s, replicates 1-3).

For the molecule `N[C@@H](CCC(=O)O)C(=O)O` [Glutamate], the FMP fluorescence reading in test [1] (t=0 s) is 60032 and 51875 and 43598; in test [1] (t=15 s), 69207 and 54669 and 51909; in test [1] (t=30 s), 69328 and 57256 and 51957; in test [1] (t=45 s), 69976 and 58306 and 52382; in test [1] (t=60 s), 70448 and 59203 and 52416; in test [1] (t=75 s), 70747 and 59679 and 52622. In addition, the FMP fluorescence reading is 70473 and 59687 and 53012 in test [1] (t=90 s); 70925 and 60367 and 52735 in test [1] (t=105 s); 71220 and 60249 and 53084 in test [1] (t=120 s); 71259 and 60330 and 52832 in test [1] (t=135 s); 59967 and 51788 and 43666 in test [1] (t=-15 s); 60239 and 51751 and 43455 in test [1] (t=-30 s, replicates 1-3).

For `CC(C)C[C@H](N)C(=O)O` [Leucine], the “FMP response as substrate” value in test [1] was “weak signal”. The FMP fluorescence reading in test [1] (t=0 s) is 61522 and 51455 and 48802; in test [1] (t=15 s), 88098 and 66521 and 74458; in test [1] (t=30 s) it was 89784 and 72558 and 75976; in test [1] (t=45 s), 91395 and 75844 and 77135; in test [1] (t=60 s) it was 92447 and 78186 and 77607; in test [1] (t=75 s), 93485 and 79454 and 77906. In addition, the FMP fluorescence reading was 93344 and 79903 and 78344 in test [1] (t=90 s); 93716 and 80571 and 78223 in test [1] (t=105 s); 93656 and 80831 and 77995 in test [1] (t=120 s); 93514 and 80690 and 77322 in test [1] (t=135 s); 61387 and 51586 and 49166 in test [1] (t=-15 s); 61314 and 51367 and 48860 in test [1] (t=-30 s, replicates 1-3).

`NCC(=O)O` [Glycine]: the “FMP response as substrate” value in test [1] is “strongest response”. In addition, the FMP fluorescence reading in test [1] (t=0 s) is 44899 and 49024 and 38114; in test [1] (t=15 s) it was 85173 and 99097 and 84032; in test [1] (t=30 s), 91215 and 103676 and 87874; in test [1] (t=45 s), 94947 and 105684 and 90110; in test [1] (t=60 s), 97113 and 106636 and 90762; in test [1] (t=75 s), 98961 and 107619 and 91458. Also, the FMP fluorescence reading in test [1] (t=90 s) was 100150 and 108044 and 90972; in test [1] (t=105 s), 99878 and 107571 and 90946; in test [1] (t=120 s) it was 99987 and 106851 and 90990; in test [1] (t=135 s), 99765 and 106361 and 89148; in test [1] (t=-15 s) it was 44724 and 48839 and 38339; in test [1] (t=-30 s, replicates 1-3) it was 44368 and 48981 and 38101.

The molecule `Cc1sc2nc(CN3CCC(C)CC3)nc(N3CCC(C)CC3)c2c1C` [Compound 56_C] had an IC50 in test [2] of 18.4 µM. That is a double-digit micromolar value.

Take `O=C(O)[C@@H]1CCCN1` [Proline]: the “FMP response as substrate” value in test [1] was “strongest response”. The FMP fluorescence reading in test [1] (t=0 s) is 59025 and 53021 and 43095; in test [1] (t=15 s), 104996 and 86952 and 88962; in test [1] (t=30 s), 110697 and 98531 and 91551; in test [1] (t=45 s), 113693 and 105110 and 94295; in test [1] (t=60 s), 116376 and 109453 and 95282; in test [1] (t=75 s) it was 118353 and 112938 and 95197. Besides, the FMP fluorescence reading in test [1] (t=90 s) was 118882 and 114320 and 95021; in test [1] (t=105 s), 119266 and 115087 and 95127; in test [1] (t=120 s), 119471 and 115780 and 93913; in test [1] (t=135 s), 119506 and 115226 and 93809; in test [1] (t=-15 s), 58886 and 52711 and 43194; in test [1] (t=-30 s, replicates 1-3), 59126 and 52759 and 43032.

`CCN1CCN(Cc2nn(-c3ccc(C)c(Cl)c3)c(N)c2-c2ccccc2)CC1` [Compound 55_A] yielded an IC50 in test [2] of 3.84 µM. This lies in the single-digit micromolar range.

The molecule `COC(=O)c1ccc(C(=O)N2CCc3sccc3C2c2ccccc2)s1` (stereo not drawn) [Compound 57_C] came in with an IC50 in test [2] of 114 µM.
